Measurements reported in article PMC10418599, “Quercetins, Chlorogenic Acids and Their Colon Metabolites Inhibit Colon Cancer Cell Proliferation at Physiologically Relevant Concentrations” (International Journal of Molecular Sciences, 2023).

Experiments:
Caco-2 cell line [1] = assay: Anti-proliferative assay (MTS cell proliferation assay); format: cell-based, Human; details: maximum tested concentration 200 μmol/L
Description: (§1) Human colon cancer Caco-2 and SW480 cell lines were cultured and grown as previously reported. […] Incubation was carried out for 24, 48 and 72 h. Data were compared with a control solution containing 0.5% DMSO in cell medium and representing 100% proliferation. In addition, six different mixes were prepared to simulate the simultaneous presence of parent phenolic compounds and metabolites by mimicking the possible human inter-individual variability in colon metabolism of phenolic compounds. Two sets of mixes were prepared to consider the colon metabolism of quercetins and chlorogenic acids. […] For each set of mixtures (QUE and CGA mixtures), three different mixes were formulated. One set of mixes mimicked the low-producers metabotype and contained 90% parent compounds and 10% metabolites (mixes QUE-LP and CGA-LP). Another set of mixes was prepared to simulate the high-producers metabotype and contained 10% parent compounds and 90% metabolites (mixes QUE-HP and CGA-HP). Finally, a third set of mixes was prepared with equimolar amounts of all the compounds (mixes QUE-EQ and CGA-EQ). […] Cell proliferation was assessed by the MTS assay as previously described. […] The IC50 values were calculated through non-linear regression analysis by plotting the base-10 logarithm of the phenolic compound concentration vs. the percentage of inhibition.

SW480 cell line [2] = assay: as above; format: cell-based, Human; details: for IC50: maximum tested concentration 200 μmol/L
Description: as §1

[3] = Cell metabolism of phenolic compounds (UHPLC-HR-MS analysis of cell media); format: in vitro ADME, Human; details: human, SW480 cells; SW480, 72 h
Description: (§2) To analyze the metabolism of phenolic compounds by Caco-2 and SW480 cells, the cell culture media were withdrawn after 0, 24, 48 and 72 h of incubation. Phenolic compounds were extracted from the culture media by following the procedure reported in Sala et al.. Briefly, 100 μL of cold methanol was mixed with 100 μL of cell media and vortexed for 1 min. The mixture was then centrifuged at 10,000× g (4 °C, 5 min) and the supernatant was injected, after appropriate dilution, in an ultra-high-performance liquid chromatography high-resolution mass spectrometry system (UHPLC-HR-MS).
(§3) The HR-MS system consisted of a UHPLC Ultimate 3000 separation module, equipped with a C18 column (Acquity UPLC HSS C18 reversed phase, 2.1 × 100 mm, 1.8 μm particle size, Waters, Milan, Italy) and coupled with a Q Exactive Hybrid Quadrupole-Orbitrap Mass Spectrometer (Thermo Scientific, San Jose, CA, USA). Mobile phases consisted of a mixture of water containing formic acid (0.1%) (mobile phase A) and acetonitrile containing formic acid (0.1%) (mobile phase B). The gradient began at 1% B, reaching 40% B over 20 min. To wash the column, the mobile phase B concentration was raised to 99% over 6 min and kept at 99% for 3 min before returning to the initial conditions. The MS and MS/MS conditions are fully described in Martini et al..
(§4) Quantification was carried out by building external calibration curves with the available standard compounds.

SW480 cell line [4] = assay: as above; format: in vitro ADME, Human; details: for Concentration of substrate in cell medium: initial 50 μmol/L
Description: as §2, §3, §4

in vitro = in vitro ADME; details: human
Description: as §2, §3, §4

Caco-2 cell line [5] = assay: in vitro; format: in vitro ADME; details: human; for Concentration of substrate in cell medium: 50 μmol/L
Description: as §2, §3, §4

[6] = cited from earlier work; for Maximum value in human fecal water: after raspberry supplementation, ref 49 (Gill et al.)
SW480 cells = assay: Cell cycle analysis by flow cytometry; format: cell-based, Human; details: 72 h, concentration equal to the IC50 value, vs control
Description: Cell cycle analysis was carried out in both Caco-2 and SW480 cell lines as previously reported by Nicoletti et al.. Cells were seeded in 6-well plates at a density of 4000 and 8000 cells/cm^2 for Caco-2 and SW480, respectively.
After 72 h of incubation, the cells were washed with PBS, detached from the 6-well plates with 500 μL of trypsin and resuspended in 1000 μL of medium. Subsequently, they were centrifuged at 3500 rpm for 5 min. After removing the supernatant, the pellet was resuspended with 400 μL of Nicoletti’s solution (sodium citrate 0.1%, Triton X-100 0.1% and 20 μg/mL propidium iodide). After 15 min of incubation at 4 °C in the dark, cell cycle analysis was performed with an Epics XL MCL flow cytometer (Beckman Coulter, Brea, CA, USA).
The data were compared with a control solution containing 0.5% DMSO in the cell medium.

[7] = design: method as in PMID 33350133, doi:10.1002/fft2.50; details: of the ingested dose; cited from earlier work
[8] = Homo sapiens, Caco-2, 48 h of incubation
[9] = Homo sapiens, Caco-2, 72 h of incubation
[10] = Homo sapiens, SW480, 48 h of incubation
[11] = Homo sapiens, SW480, 72 h of incubation
[12] = no dietary restriction or supplementation, ref 47 (Jenner et al.)

| SMILES | IC50 (Caco-2 cell line [1]; [8]) [µM] | IC50 (Caco-2 cell line [1]; [9]) [µM] | IC50 (SW480 cell line [2]; [10]) [µM] | IC50 (SW480 cell line [2]; [11]) [µM] | recovery at 72 h [3] [%] | Concentration of substrate in cell medium (SW480 cell line [4]; SW480, 24 h) [µmol/L] | Concentration of substrate in cell medium (SW480 cell line [4]; SW480, 48 h) [µmol/L] | Concentration of substrate in cell medium (SW480 cell line [4]; SW480, 72 h) [µmol/L] | recovery at 72 h (in vitro) [%] | Concentration of substrate in cell medium (Caco-2 cell line [5]; 24 h) [µmol/L] | Concentration of substrate in cell medium (Caco-2 cell line [5]; 48 h) [µmol/L] | Concentration of substrate in cell medium (Caco-2 cell line [5]; 72 h) [µmol/L] | Maximum value in human fecal water [6] [µmol/L] | Decrease in IC50 value from 48 to 72 h (SW480 cell line [2]; SW480) [fold] | Increase in the number of SW480 cells in the S phase (SW480 cells) [times] | other results |
| --- | --- | --- | --- | --- | --- | --- | --- | --- | --- | --- | --- | --- | --- | --- | --- | --- |
| O=C(O)Cc1cccc(O)c1 [3-(3′-Hydroxyphenyl)acetic acid, 3-(3′-hydroxyphenyl)acetic acid] | > 200 | > 200 | > 200 | 99.6 ± 4.8 | > 80 | 42.23 ± 0.55 | 42.81 ± 0.10 | 39.28 ± 0.85 | > 80 | 48.83 ± 0.85 | 47.02 ± 0.39 | 43.17 ± 0.06 | 327 |  |  |  |
| O=C(O)CCc1cccc(O)c1 [3-(3′-Hydroxyphenyl)propanoic acid, 3-(3′-hydroxyphenyl)propanoic acid] | > 200 | > 200 |  | > 200 | > 80 | 52.74 ± 0.44 | 50.70 ± 0.11 | 49.95 ± 0.37 | > 80 | 45.51 ± 0.41 | 46.27 ± 0.58 | 46.28 ± 0.76 | 1810 |  |  | IC50 (Caco-2 cell line [1]; Homo sapiens, Caco-2, 24 h of incubation): > 200 µM; inhibition at 100 µM (SW480 cell line [2]; Homo sapiens, SW480, 100 μmol/L, 72 h, read-out: Percentage of inhibition of SW480 growth): 13.3%; Concentration in human fecal water ([6]; no dietary restriction or supplementation, ref 46 (Karlsson et al.)): 61 ± 34 µmol/L; Mean concentration in human fecal water [6, 12]: 68 ± 93 µmol/L; Range of concentration in human fecal water [6, 12]: 0.72 to 209 µmol/L |
| O=c1c(O)c(-c2ccc(O)c(O)c2)oc2cc(O)cc(O)c12 [Quercetin, quercetin] | > 200 | 116 ± 4.9 | 89.2 ± 3.1 | 58.2 ± 2.7 |  | 47.39 ± 1.22 | 40.37 ± 1.20 | 14.83 ± 0.84 |  | 0.61 ± 0.01 | 0.29 ± 0.01 | 0.52 ± 0.02 |  | 1.5 | 3.1 | Concentration of newly formed metabolite (SW480 cell line [4]; SW480, 24 h, substrate Quercetin-4′-O-glucoside 50 μmol/L): 52.70 ± 2.24 µmol/L; Concentration of newly formed metabolite (SW480 cell line [4]; SW480, 48 h, substrate Quercetin-3-O-glucoside-4′-O-glucoside 50 μmol/L): 0.04 ± 0.00 µmol/L; Concentration of newly formed metabolite (SW480 cell line [4]; SW480, 48 h, substrate Quercetin-4′-O-glucoside 50 μmol/L): 36.89 ± 0.52 µmol/L; Concentration of newly formed metabolite (SW480 cell line [4]; SW480, 72 h, substrate Quercetin-3-O-glucoside-4′-O-glucoside 50 μmol/L): 0.07 ± 0.00 µmol/L; Concentration of newly formed metabolite (SW480 cell line [4]; SW480, 72 h, substrate Quercetin-4′-O-glucoside 50 μmol/L): 12.78 ± 0.41 µmol/L; Decrease in cell medium concentration (Caco-2 cell line [5]; 24 h): 99.5%; Absorption in the small intestine [7]: about 20% |
| O=c1c(O)c(-c2ccc(O[C@@H]3O[C@H](CO)[C@@H](O)[C@H](O)[C@H]3O)c(O)c2)oc2cc(O)cc(O)c12 [Quercetin-4′-O-glucoside, quercetin-4′-O-glucoside] |  |  |  |  |  | 2.98 ± 0.07 | 0.07 ± 0.00 | 0.01 ± 0.00 |  |  |  |  |  | 1.4 | 2.5 | IC50 (Caco-2 cell line [1]; Caco-2, 48 h of incubation): > 200 µM; IC50 (Caco-2 cell line [1]; Caco-2, 72 h of incubation): > 200 µM; IC50 (SW480 cell line [2]; SW480, 48 h of incubation): 144 ± 6.6 µM; IC50 (SW480 cell line [2]; SW480, 72 h of incubation): 102 ± 5.3 µM |
